These results are taken from US20060003893A1, “Controlled release fertilizers employing ureaform compounds and processes for making same” (priority 2004, published 2006).

This data set can be described thus: Controlled Release Soil Test (irrigated soil burial test). It is filed as physicochemical. An excerpt:
To measure the relative solubilities of the products in soil, an irrigated soil burial test (“Controlled Release Soil Test”) was devised such that granules could be retrieved for measurement of their nitrogen content. The following is a description of the test.
Controlled Release Soil Test
Procedure for Controlled Release Soil Test
• 1. Screen the sample to obtain −6+7 Tyler mesh granules for the test. • 2. Label a freezer container with the test description. • 3. Place the freezer container on the 1200 g balance and tare out. • 4. Place 300 g of potting soil with a 40% moisture content into the container and record the weight. • 5. Over the soil place two (2) pieces of fiberglass mesh with 14 meshes to the inch and 1/16 inch openings. • 6. Tare out the container with the soil and fiberglass mesh screens. • 7. Spread 5 grams of −6+7 Tyler mesh granules over the screen in a single layer and record the weight. • 8. Place a large square of fiberglass mesh over the granules, with a stainless steel screen cut to fit over it, so that the shape of the container has been mirrored. • 9. Once this is shaped, tare out the container and add 150 g of soil and record the weight. • 10. Repeat this process for each sample to be tested (in triplet if possible). • 11. After all containers are completed, fill a mist spray bottle with de-ionized water and prime. • 12. […]

Turning to `NC(N)=O` [UREA, urea], the “time to go into solution” value was not above 9 h. The “Nitrogen Retained (%) 9 Hours” value (9 hours) was 0%.
